Measured values taken from US6443945B1, “Laser assisted pharmaceutical delivery and fluid removal” (Transmedica International, Inc., priority 1993, dated 2002).

How the values were obtained:
[1] = Topical alprostadil patch on laser-perforated penis skin; type: in vivo, human; conditions: three 2 mm spots, 5 J/cm^2; patch held 45 minutes
Source text: The duration of the pulse was approximately 300 μs. The spot size was approximately 2 mm, with an energy fluence of 5 J/cm^2. Single pulses were used. Three 2 mm diameter spots were created on a flaccid penis. Subsequent to ablation a pharmaceutical preparation of alprostadil (Caverject from Pharmacia & Upjohn, Kalamazoo, Mich.) was applied to a small patch consisting of tissue paper. The patch was applied to the multiple perforated areas of the skin on the then flaccid penis and held there with adhesive tape for 45 minutes. After approximately 35 minutes, the patient obtained an erection that was sustained for more than 1 hour.

[2] = Permeation of radiolabelled corticosterone or DNA through laser-irradiated human skin in diffusion cells; type: in vitro ADME; conditions: 2 mm spot, donor removed after 15 minutes
Method: Pieces of human skin were placed in diffusion cells and irradiated with a single pulse of radiant energy produced by an Er:YAG laser. The spot size was 2 mm and the energy of the pulse was measured with a calibrated energy meter. After irradiation, the diffusion cells were placed in a 37 degrees Celsius heating block. Phosphate buffered saline was added to the receptor chamber below the skin and a small stir bar was inserted in the receptor chamber to keep the fluid continually mixed. Control skin was left unirradiated. Small volumes of radiolabelled compounds (either corticosterone or DNA) were then added to the donor chamber and left for 15 minutes before being removed (in the case of corticosterone) or were left for the entire duration of the experiment (in the case of the DNA). Samples were then taken from the receptor chamber at various times after application of the test compound and measured in a scintillation or gamma counter.

[3] = In vivo blanching assay (chromameter skin redness) on laser-irradiated forearm spots; parameters: species or system human
Source text: In the case of the blanching assay, baseline skin color (redness) measurements were then taken of each spot using a Minolta CR-300 Chromameter (Minolta Inc., NJ). The Er:YAG laser was then used to ablate six 2 mm spots on one forearm, at energies of 40, 80 and 120 mJ. A spot (negative calorimeter control) directly adjacent to the laser irradiated spots remained untouched. Subsequently, a thin film of 1% hydrocortisone ointment was applied to six of the lased spots on the treatment arm. One untouched spot on the contralateral arm was administered a thin layer of Diprolene (β-methasone), which is a strong steroid that can permeate the intact stratum corneum in an amount sufficient to cause measurable skin blanching. An occlusive patch, consisting of simple plastic wrap, was fixed with gauze and dermatological tape over all sites on both arms and left in place for two hours, after which the administered steroids were gently removed with cotton swabs. […] Finally, the skin was clinically assessed for evidence of irritation at the 26 hour evaluation.

[4] = In vitro permeation study of tritiated water through lased human skin; type: in vitro ADME; conditions: 50 mJ (1.6 J/cm^2) to 1250 mJ (40 J/cm^2); increase at low fluences up to about 5 J/cm^2, then more-or-less constant
Source text: Histology studies on rat and human skin, irradiated either in vivo or in vitro, show little or no evidence of ablation when Er:YAG laser pulse energies less than about 100-200 mJ are used. (See, e.g., FIG. 25).

[5] = Permeation of radiolabelled drugs through Er:YAG laser-irradiated human skin in Franz diffusion cells; type: in vitro ADME
Source text: The output of the Er:YAG laser was passed through an aperture to define it's diameter as 2 mm. Human skin, purchased from a skin bank, was positioned in Franz diffusion cells. The receptor chamber of the cell was filled with 0.9% buffered saline. A single pulse, of measured energy, was used to irradiate the skin in separate diffusion cells. Control skin was left unirradiated. […] In the case of γ-interferon, a 285 mJ pulse was used, and multiple samples were irradiated. […] In the case of cortisone, either 77 mJ or 117 mJ was used. After irradiation, a stirring magnet was place in the receptor chamber of the diffusion cells and the cells were placed in a heating block held at 37° C. […] The donor was left on the skin for the duration of the experiment. At various times post-drug-application, samples were taken from the receptor chamber and the amount of drug present was assayed with either a gamma-counter, or a liquid scintillation counter.

CCN(CC)CC(=O)Nc1c(C)cccc1C [Lidocaine, lidocaine]
pain on insertion of 26G-0.5 needle into lased site (30% liquid lidocaine solution applied topically for two minutes after 60 mJ pulse): no observable pain
pain on full insertion of 22G-1 needle into lased site (30% liquid lidocaine solution, 6-minute anesthetic treatment after 60 mJ pulse): no observable pain

CCCCC[C@H](O)/C=C/[C@H]1[C@H](O)CC(=O)[C@@H]1CCCCCCC(=O)O [alprostadil]
duration of erection [1]: more than 1 hour
time to erection [1]: approximately 35 minutes

C[C@]12C[C@H](O)[C@H]3[C@@H](CCC4=CC(=O)CC[C@@]43C)[C@@H]1CC[C@@H]2C(=O)CO [corticosterone]
permeation through irradiated skin versus unirradiated controls ([2]; 77 mJ/pulse (sub-ablative)): enhanced permeation
permeation through irradiated skin versus unirradiated controls ([2]; 117 mJ pulse): enhanced permeation

C[C@]12CCC(=O)C=C1CC[C@@H]1[C@@H]2[C@@H](O)C[C@@]2(C)[C@H]1CC[C@]2(O)C(=O)CO [hydrocortisone]
erythema (reddening) of skin, chromameter measurements ([3]; 1% hydrocortisone ointment on spots lased at 40, 80, 120 mJ, occluded two hours, 2-26 hours post-irradiation): reddening was less than that seen in the control spots
clinical assessment for irritation ([3]; 26 hour evaluation): no problems were seen

[3H]O[3H] [tritiated water]
permeation through lased human skin [4]: increase in permeation

B1: γ-Interferon: radiolabelled gamma-interferon diluted in buffered saline (protein, UniProt P01579 24-161, looked up)
Interferon gamma: QDPYVKEAENLKKYFNAGHSDVADNGTLFLGILKNWKEESDRKIMQSQIVSFYFKLFKNFKDDQSIQKSVETIKEDMNVKFFNSNKKKRDDFEKLTNYSVTDLNVQRKAIHELIQVMAELSPAAKTGKRKRSQMLFRG
modifications: radiolabel
notes: radiolabelled gamma-interferon diluted in buffered saline
Permeability Constant, kp [5]: 9.74 +/− 2.05 ×10^−3 cm/hr
